Experimental data reported in patent US20020137929A1, “1 - (3-heterocyclylphenyl) isothiourea, -isourea, -guanidine and -amidine herbicidal agents” (Intellectual Property Department, BASF Aktiengesellschaft, priority 1998, published 2002).

Experiments:
ABUTH (Velvetleaf) = assay: Postemergence herbicidal evaluation; type: in vivo, Abutilon theophrasti; settings: postemergence
Outline: (§1)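 Young plants, roughly two weeks from seeding, receive the active ingredient as a sprayed dispersion (acetone/water 50/50, 0.5% TWEEN 20) at 40 psi. Doses span about 0.0156 to 0.500 kg/ha. A visual score from 0 to 9 compares treated with control plants four to five weeks on.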

GALAP (Galium) = assay: Postemergence herbicidal evaluation; type: in vivo, Galium aparine; settings: postemergence
Outline: as §1

ECHCG (Barnyardgrass) = assay: Postemergence herbicidal evaluation; type: in vivo, Echinochloa crus-galli; settings: postemergence
Outline: as §1

SETVI (Foxtail, Green) = assay: Postemergence herbicidal evaluation; type: in vivo, Setaria viridis; settings: postemergence
Outline: as §1

ORYSAT (Rice, Tebonnet) = assay: Postemergence herbicidal evaluation; type: in vivo, Oryza sativa, (L.) Tebonnet; settings: postemergence
Outline: as §1

[1] = test system: IPOHE (Morningglory, Ivyleaf); assay: Preemergence herbicidal evaluation; type: in vivo, Ipomoea hederacea; settings: rated 4-5 weeks after treatment
Outline: (§2)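 Each species is sown separately in potting soil over roughly an inch of soil before any emergence. The soil surface then receives an aqueous acetone spray delivering about 0.0156 to 0.500 kg/ha of compound. After four to five weeks, injury is scored from 0 to 9 relative to a control.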

[2] = test system: TRZAWR (Wheat, Winter, cv Riband); assay: Preemergence herbicidal evaluation; type: in vivo, Triticum aestivum; settings: rated 4-5 weeks after treatment
Outline: as §2

ZEAMX (Corn, Field) = assay: Preemergence herbicidal evaluation; type: in vivo, Zea mays; settings: rated 4-5 weeks after treatment
Outline: as §2

[3] = test system: ECHORC (Watergrass (Calif.)); assay: Preemergence weed control under flooded paddy conditions; type: in vivo, Echinochloa oryzoides; settings: rated 3-4 weeks after treatment
Outline: (§3)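 Herbicidal effect is scored visually on a 0-9 scale against an untreated control, three to four weeks after compounds are pipetted into the flood water (1.5 to 3 cm deep) over seeds planted in silt loam at 0.5 cm depth. Rates: about 0.0313 to 0.500 kg/ha.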

CYPIR (Rice Flatsedge) = assay: as above; type: in vivo, Cyperus iria; settings: rated 3-4 weeks after treatment
Outline: as §3

MOOVA (Monochoria) = assay: as above; type: in vivo, Monochoria vaginalis; settings: rated 3-4 weeks after treatment
Outline: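 Using flooded silt loam (water 1.5 to 3 cm deep), seeds sown in the top 0.5 cm were exposed preemergence to compound pipetted into the flood at about 0.0313 to 0.500 kg/ha. Effects were scored 0-9 by eye three to four weeks later.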

[4] = rate 0.0625 kg/ha, rating scale 0-9
[5] = rate 0.1250 kg/ha, rating scale 0-9
[6] = rate 0.2500 kg/ha, rating scale 0-9

COc1cccc(CN2C(=O)CSC2=Nc2cc(-n3c(=O)cc(C(F)(F)F)n(C)c3=O)c(F)cc2Cl)c1 [Compound 137, 3-{4-Chloro-2-fluoro-5-{[3-(m-methoxybenzyl)-4-oxo-2-thiazolidinylidene]amino}phenyl}-1-methyl-6-(trifluoromethyl)-2,4(1H,3H)-pyrimidinedione]
9.0: herbicidal rating ABUTH (ABUTH (Velvetleaf); rate 0.0156 kg/ha) | herbicidal rating ABUTH (ABUTH (Velvetleaf); rate 0.0313 kg/ha) | herbicidal rating ABUTH (ABUTH (Velvetleaf); rate 0.0625 kg/ha)
2.0: herbicidal rating ECHCG (ECHCG (Barnyardgrass); rate 0.0156 kg/ha) | herbicidal effect rating, CYPIR (CYPIR (Rice Flatsedge); 0.0625 kg/ha) | herbicidal effect rating, CYPIR (CYPIR (Rice Flatsedge); 0.1250 kg/ha)
3.0: herbicidal rating GALAP (GALAP (Galium); rate 0.0625 kg/ha) | herbicidal rating ECHCG (ECHCG (Barnyardgrass); rate 0.0625 kg/ha) | herbicidal rating SETVI (SETVI (Foxtail, Green); rate 0.0625 kg/ha) | herbicidal rating ORYSAT (ORYSAT (Rice, Tebonnet); rate 0.0156 kg/ha) | herbicidal rating ORYSAT (ORYSAT (Rice, Tebonnet); rate 0.0313 kg/ha) | herbicidal effect rating, ECHORC ([3]; 0.0313 kg/ha) | herbicidal effect rating, ECHORC ([3]; 0.0625 kg/ha) | herbicidal effect rating, ECHORC ([3]; 0.1250 kg/ha) | herbicidal effect rating, CYPIR (CYPIR (Rice Flatsedge); 0.0313 kg/ha)
1.0: herbicidal rating GALAP (GALAP (Galium); rate 0.0156 kg/ha) | herbicidal rating GALAP (GALAP (Galium); rate 0.0313 kg/ha) | herbicidal rating ECHCG (ECHCG (Barnyardgrass); rate 0.0313 kg/ha) | herbicidal rating SETVI (SETVI (Foxtail, Green); rate 0.0156 kg/ha) | herbicidal rating SETVI (SETVI (Foxtail, Green); rate 0.0313 kg/ha) | Preemergence herbicidal rating IPOHE [1, 6]
0.0: Preemergence herbicidal rating IPOHE [1, 4] | Preemergence herbicidal rating IPOHE [1, 5] | Preemergence herbicidal rating TRZAWR [2, 4] | Preemergence herbicidal rating TRZAWR [2, 5] | Preemergence herbicidal rating TRZAWR [2, 6] | Preemergence herbicidal rating ZEAMX (ZEAMX (Corn, Field); [4]) | Preemergence herbicidal rating ZEAMX (ZEAMX (Corn, Field); [5]) | Preemergence herbicidal rating ZEAMX (ZEAMX (Corn, Field); [6])
4.0: herbicidal effect rating, CYPIR (CYPIR (Rice Flatsedge); 0.2500 kg/ha) | herbicidal effect rating, MOOVA (MOOVA (Monochoria); 0.0313 kg/ha)
5.0: herbicidal effect rating, ECHORC ([3]; 0.2500 kg/ha) | herbicidal effect rating, MOOVA (MOOVA (Monochoria); 0.0625 kg/ha) | herbicidal effect rating, MOOVA (MOOVA (Monochoria); 0.1250 kg/ha)
3.5: herbicidal rating ORYSAT (ORYSAT (Rice, Tebonnet); rate 0.0625 kg/ha)
8.0: herbicidal effect rating, MOOVA (MOOVA (Monochoria); 0.2500 kg/ha)

C=CCN1C(=O)C(CC(=O)NO)SC1=Nc1cc(-n2c(=O)cc(C(F)(F)F)n(C)c2=O)c(F)cc1Cl (stereo not shown) [Compound 161, 3-Allyl-2-{{2-chloro-5-[3,6-dihydro-3-methyl-2,6-dioxo-4-(trifluoromethyl)-1(2H)-pyrimidinyl]-4-fluorophenyl}imino}-4-oxo-5-thiazolidineacetohydroxamic acid]
3.5: herbicidal rating ORYSAT (ORYSAT (Rice, Tebonnet); rate 0.0625 kg/ha) | herbicidal rating ORYSAT (ORYSAT (Rice, Tebonnet); rate 0.1250 kg/ha)
1.0: herbicidal rating GALAP (GALAP (Galium); rate 0.0313 kg/ha) | herbicidal rating SETVI (SETVI (Foxtail, Green); rate 0.0313 kg/ha) | Preemergence herbicidal rating TRZAWR ([2]; 0.0625 kg/ha) | Preemergence herbicidal rating ZEAMX (ZEAMX (Corn, Field); 0.0625 kg/ha)
5.0: herbicidal rating ABUTH (ABUTH (Velvetleaf); rate 0.0313 kg/ha) | Preemergence herbicidal rating ZEAMX (ZEAMX (Corn, Field); 0.1250 kg/ha) | herbicidal effect rating, CYPIR (CYPIR (Rice Flatsedge); 0.1250 kg/ha)
2.0: herbicidal rating GALAP (GALAP (Galium); rate 0.0625 kg/ha) | Preemergence herbicidal rating IPOHE ([1]; 0.0313 kg/ha) | herbicidal effect rating, ECHORC ([3]; 0.1250 kg/ha)
0.0: herbicidal rating ABUTH (ABUTH (Velvetleaf); rate 0.0156 kg/ha) | herbicidal rating GALAP (GALAP (Galium); rate 0.0156 kg/ha) | herbicidal rating ECHCG (ECHCG (Barnyardgrass); rate 0.0156 kg/ha) | herbicidal rating ECHCG (ECHCG (Barnyardgrass); rate 0.0313 kg/ha) | herbicidal rating SETVI (SETVI (Foxtail, Green); rate 0.0156 kg/ha) | Preemergence herbicidal rating TRZAWR ([2]; 0.0156 kg/ha) | Preemergence herbicidal rating TRZAWR ([2]; 0.0313 kg/ha) | Preemergence herbicidal rating ZEAMX (ZEAMX (Corn, Field); 0.0156 kg/ha) | Preemergence herbicidal rating ZEAMX (ZEAMX (Corn, Field); 0.0313 kg/ha) | herbicidal effect rating, ECHORC ([3]; 0.0313 kg/ha) | herbicidal effect rating, ECHORC ([3]; 0.0625 kg/ha)
2.5: herbicidal rating ORYSAT (ORYSAT (Rice, Tebonnet); rate 0.0156 kg/ha)
6.0: Preemergence herbicidal rating ZEAMX (ZEAMX (Corn, Field); 0.2500 kg/ha) | herbicidal effect rating, CYPIR (CYPIR (Rice Flatsedge); 0.2500 kg/ha)
7.0: herbicidal rating ABUTH (ABUTH (Velvetleaf); rate 0.0625 kg/ha) | herbicidal rating SETVI (SETVI (Foxtail, Green); rate 0.0625 kg/ha) | herbicidal rating SETVI (SETVI (Foxtail, Green); rate 0.1250 kg/ha) | Preemergence herbicidal rating IPOHE ([1]; 0.0625 kg/ha) | Preemergence herbicidal rating TRZAWR ([2]; 0.2500 kg/ha) | herbicidal effect rating, MOOVA (MOOVA (Monochoria); 0.0313 kg/ha) | herbicidal effect rating, MOOVA (MOOVA (Monochoria); 0.0625 kg/ha) | herbicidal effect rating, MOOVA (MOOVA (Monochoria); 0.1250 kg/ha)
3.0: herbicidal rating ORYSAT (ORYSAT (Rice, Tebonnet); rate 0.0313 kg/ha) | herbicidal effect rating, CYPIR (CYPIR (Rice Flatsedge); 0.0313 kg/ha)
4.0: herbicidal rating GALAP (GALAP (Galium); rate 0.1250 kg/ha) | herbicidal rating ECHCG (ECHCG (Barnyardgrass); rate 0.0625 kg/ha) | herbicidal rating ECHCG (ECHCG (Barnyardgrass); rate 0.1250 kg/ha) | Preemergence herbicidal rating TRZAWR ([2]; 0.1250 kg/ha) | herbicidal effect rating, ECHORC ([3]; 0.2500 kg/ha) | herbicidal effect rating, CYPIR (CYPIR (Rice Flatsedge); 0.0625 kg/ha)
9.0: herbicidal rating ABUTH (ABUTH (Velvetleaf); rate 0.1250 kg/ha) | Preemergence herbicidal rating IPOHE ([1]; 0.1250 kg/ha) | Preemergence herbicidal rating IPOHE ([1]; 0.2500 kg/ha) | Preemergence herbicidal rating IPOHE ([1]; 0.5000 kg/ha) | Preemergence herbicidal rating TRZAWR ([2]; 0.5000 kg/ha) | Preemergence herbicidal rating ZEAMX (ZEAMX (Corn, Field); 0.5000 kg/ha) | herbicidal effect rating, MOOVA (MOOVA (Monochoria); 0.2500 kg/ha)

CCOC(=O)CN1C(=O)C(SC)SC1=Nc1cc(-n2c(=O)cc(C(F)(F)F)n(C)c2=O)c(F)cc1Cl (stereo not shown) [Compound 125, Ethyl 2-{{2-chloro-5-[3,6-dihydro-3-methyl-2,6-dioxo-4-(trifluoromethyl)-1(2H)-pyrimidinyl]-4-fluorophenyl}imino}-5-(methylthio)-4-oxo-3-thiazolidineacetate]
3.0: herbicidal rating ECHCG (ECHCG (Barnyardgrass); rate 0.0625 kg/ha) | Preemergence herbicidal rating ZEAMX (ZEAMX (Corn, Field); rate 0.0625 kg/ha) | herbicidal effect rating, CYPIR (CYPIR (Rice Flatsedge); 0.0313 kg/ha)
1.0: herbicidal rating GALAP (GALAP (Galium); rate 0.0156 kg/ha) | herbicidal rating ECHCG (ECHCG (Barnyardgrass); rate 0.0156 kg/ha) | Preemergence herbicidal rating TRZAWR ([2]; rate 0.0625 kg/ha) | Preemergence herbicidal rating TRZAWR ([2]; rate 0.1250 kg/ha)
3.7: herbicidal rating ORYSAT (ORYSAT (Rice, Tebonnet); rate 0.0625 kg/ha)
6.0: Preemergence herbicidal rating ZEAMX (ZEAMX (Corn, Field); rate 0.1250 kg/ha) | herbicidal effect rating, CYPIR (CYPIR (Rice Flatsedge); 0.0625 kg/ha)
2.0: herbicidal rating GALAP (GALAP (Galium); rate 0.0313 kg/ha) | herbicidal rating ECHCG (ECHCG (Barnyardgrass); rate 0.0313 kg/ha) | herbicidal rating SETVI (SETVI (Foxtail, Green); rate 0.0156 kg/ha) | herbicidal effect rating, ECHORC ([3]; 0.0313 kg/ha)
3.3: herbicidal rating ORYSAT (ORYSAT (Rice, Tebonnet); rate 0.0156 kg/ha)
4.0: herbicidal rating ORYSAT (ORYSAT (Rice, Tebonnet); rate 0.0313 kg/ha) | Preemergence herbicidal rating IPOHE ([1]; rate 0.0625 kg/ha) | Preemergence herbicidal rating IPOHE ([1]; rate 0.1250 kg/ha) | Preemergence herbicidal rating TRZAWR ([2]; rate 0.2500 kg/ha) | herbicidal effect rating, ECHORC ([3]; 0.0625 kg/ha)
0.0: Preemergence herbicidal rating IPOHE ([1]; rate 0.0156 kg/ha) | Preemergence herbicidal rating IPOHE ([1]; rate 0.0313 kg/ha) | Preemergence herbicidal rating TRZAWR ([2]; rate 0.0156 kg/ha) | Preemergence herbicidal rating TRZAWR ([2]; rate 0.0313 kg/ha) | Preemergence herbicidal rating ZEAMX (ZEAMX (Corn, Field); rate 0.0156 kg/ha) | Preemergence herbicidal rating ZEAMX (ZEAMX (Corn, Field); rate 0.0313 kg/ha)
9.0: herbicidal rating ABUTH (ABUTH (Velvetleaf); rate 0.0156 kg/ha) | herbicidal rating ABUTH (ABUTH (Velvetleaf); rate 0.0313 kg/ha) | herbicidal rating ABUTH (ABUTH (Velvetleaf); rate 0.0625 kg/ha) | Preemergence herbicidal rating IPOHE ([1]; rate 0.2500 kg/ha) | Preemergence herbicidal rating IPOHE ([1]; rate 0.5000 kg/ha) | herbicidal effect rating, CYPIR (CYPIR (Rice Flatsedge); 0.2500 kg/ha) | herbicidal effect rating, MOOVA (MOOVA (Monochoria); 0.2500 kg/ha)
7.0: Preemergence herbicidal rating ZEAMX (ZEAMX (Corn, Field); rate 0.2500 kg/ha) | Preemergence herbicidal rating ZEAMX (ZEAMX (Corn, Field); rate 0.5000 kg/ha) | herbicidal effect rating, ECHORC ([3]; 0.1250 kg/ha) | herbicidal effect rating, ECHORC ([3]; 0.2500 kg/ha) | herbicidal effect rating, CYPIR (CYPIR (Rice Flatsedge); 0.1250 kg/ha) | herbicidal effect rating, MOOVA (MOOVA (Monochoria); 0.0625 kg/ha) | herbicidal effect rating, MOOVA (MOOVA (Monochoria); 0.1250 kg/ha)
5.0: herbicidal rating GALAP (GALAP (Galium); rate 0.0625 kg/ha) | herbicidal rating SETVI (SETVI (Foxtail, Green); rate 0.0313 kg/ha) | herbicidal rating SETVI (SETVI (Foxtail, Green); rate 0.0625 kg/ha) | Preemergence herbicidal rating TRZAWR ([2]; rate 0.5000 kg/ha) | herbicidal effect rating, MOOVA (MOOVA (Monochoria); 0.0313 kg/ha)
